Test results taken from US20030100550A1, “Carboxamide diazepin derivatives, preparation method, use as medicines, pharmaceutical compositions and use thereof” (priority 2002, published 2003).
Read-outs that look alike come from different tables or passages of the source.

Biological target: T1, Cathepsin K (Homo sapiens, UniProt P43235)
T1 sequence (P43235 115-329): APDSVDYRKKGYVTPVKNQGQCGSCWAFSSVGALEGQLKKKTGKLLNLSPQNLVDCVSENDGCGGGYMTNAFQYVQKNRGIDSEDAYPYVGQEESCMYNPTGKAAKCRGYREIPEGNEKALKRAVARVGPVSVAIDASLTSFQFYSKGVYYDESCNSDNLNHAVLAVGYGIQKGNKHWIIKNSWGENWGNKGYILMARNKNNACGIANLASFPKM
Assay: Study of Cathepsin K inhibition (fluorescence, Z-Val-arg-AMC)
Format: biochemical
Protocol: Study of Cathepsin K Inhibition:
The products to be tested (10 mM) are diluted to […] in DMSO and distributed into Nunc polystyrene 96 well plates at a rate of 2 μl per well. Column 12 of the plate is reserved for the controls and therefore receives […] of DMSO (without products) per well. The plates are stored at −80° C. and thawed on the day of the experiment.
The products are diluted to 50 μM by adding 38 μl of reaction buffer: sodium acetate 100 mM, EDTA 5 mM, DTT […] pH 5.5. The addition as well as all the operations by pipette are carried out with a CybiWell 96 tip pipette. After mixing the solutions, each product is transferred into 2 wells (duplicates) of a Greiner black 384 well plate at a rate of 10 μl per well. Two 96-well plates can therefore be tested in a 384-well plate.
A solution of substrate at 50 μM, Z-Val-arg-AMC (Calbiochem), is prepared in the reaction buffer. The substrate, is then distributed into all the wells of the 384-well plate (20 μl per well).
A solution of Cathepsin K at 12.5 ng/ml is prepared in the reaction buffer and distributed into all the wells of the 384-well plate (20 μl per well) except for the 16 wells serving as 100% inhibition controls (column 23 and 24, lines I to P) which receive 20 μl of enzyme-free buffer.
The plates are then incubated 2H at ambient temperature, then read on Fluoroskan (Labsystems): excitation 390 nm; emission 460 nm
The final concentrations of each of the reagents are: products 10 μM, substrate 20 μM, enzyme 5 ng/ml.
The % inhibition for each of the products is calculated by using points at 0 and 100% inhibition of each plate as references. The products presenting a significant inhibition are then retested on a range of concentrations from 50 to 0.5 μM to determine an IC50.

[1] = substrate Z-Val-arg-AMC 20 μM, enzyme 5 ng/ml, 2H at ambient temperature, read-out: Cathepsin K IC50

| SMILES | IC50 [1] | further results |
| --- | --- | --- |
| C=CCOC(=O)CC[C@H](NC(=O)[C@@H]1CCCN2C(=O)CC[C@H](NC(=O)C(C)C)C(=O)N12)C(=O)C=[N+]=[N-] [Example 38, (2-propenyl)(4S)6-diazo-4-[[[(1S,9S)-9-[(2-methyl-1-oxo-propyl)amino]-octahydro-6,10-dioxo-6H-pyridazino[1,2-a][1,2]diazepine-1-yl]carbonyl]amino]-5-oxo-hexanoate] | 5 µM |  |
| C=CCOC(=O)CC[C@H](NC(=O)[C@@H]1CCCN2C(=O)CC[C@H](NC(=O)c3cccc(OC)c3)C(=O)N12)C(=O)C=[N+]=[N-] [Example 39, (2-propenyl)(4S)6-diazo-4-[[[(1S,9S)-9-[(3-methoxybenzoyl)amino]-octahydro-6,10-dioxo-6H-pyridazino[1,2-a][1,2]diazepine-1-yl]carbonyl]amino]-5-oxo-hexanoate] | 3 µM |  |
| C=CCOC(=O)CC[C@H](NC(=O)[C@@H]1CCCN2C(=O)CC[C@H](NC(=O)c3ccco3)C(=O)N12)C(=O)C=[N+]=[N-] [Example 40, (2-propenyl)(4S)6-diazo-4-[[[(1S,9S)-9-[[(2-furanyl)carbonyl]amino]-octahydro-6,10-dioxo-6H-pyridazino[1,2-a][1,2]diazepine-1-yl]carbonyl]amino]-5-oxo-hexanoate] | 1.8 µM |  |
| C=CCOC(=O)CC[C@H](NC(=O)[C@@H]1CCCN2C(=O)CC[C@H](NC(=O)NC3CCCCC3)C(=O)N12)C(=O)C=[N+]=[N-] [Example 42, (2-propenyl)(4S)6-diazo-4-[[[(1S,9S)-9-[[(cyclohexylamino)carbonyl]amino]-octahydro-6,10-dioxo-6H-pyridazino[1,2-a][1,2]diazepine-1-yl]carbonyl]amino]-5-oxo-hexanoate] | 4 µM |  |
| C=CCOC(=O)CC[C@H](NC(=O)[C@@H]1CCCN2C(=O)CC[C@H](NS(C)(=O)=O)C(=O)N12)C(=O)C=[N+]=[N-] [Example 45, (2-propenyl)(4S)6-diazo-4-[[[(1S,9S)-9-[(methylsulphonyl)amino]-octahydro-6,10-dioxo-6H-pyridazino[1,2-a][l,2]diazepine-1-yl]carbonyl]amino]-5-oxo-hexanoate] | 0.9 µM |  |
| C=CCOC(=O)CC[C@H](NC(=O)[C@@H]1CCCN2C(=O)CC[C@H](NS(=O)(=O)c3ccc(C(F)(F)F)cc3)C(=O)N12)C(=O)C=[N+]=[N-] [Example 46, (2-propenyl)(4S)6-diazo-4-[[[(1S,9S)-9-[[[4-(trifluoromethyl)phenyl]sulphonyl]amino]-octahydro-6,10-dioxo-6H-pyridazino[1,2-a][1,2]diazepine-1-yl]carbonyl]amino]-5-oxo-hexanoate] | 6 µM |  |
| C=CCOC(=O)CC[C@H](NC(=O)[C@@H]1CCCN2C(=O)CC[C@H](NS(=O)(=O)c3ccc4ccccc4c3)C(=O)N12)C(=O)C=[N+]=[N-] [Example 47, (2-propenyl)(4S)6-diazo-4-[[[(1S,9S)-9-[[(2-naphthalenyl)sulphonyl]amino]-octahydro-6,10-dioxo-6H-pyridazino[1,2-a][1,2]diazepine-1-yl]carbonyl]amino]-5-oxo-hexanoate] | 5 µM |  |
| C=CCOC(=O)CC[C@H](NC(=O)[C@@H]1CCCN2C(=O)CC[C@H](NS(=O)(=O)c3ccc(C(F)(F)F)cc3)C(=O)N12)C(=O)CN1CCN(CC(=O)N2CCCC2)CC1 [Example 107] | 20 µM |  |
| C=CCOC(=O)CC[C@H](NC(=O)[C@@H]1CCCN2C(=O)CC[C@H](NS(=O)(=O)c3ccc4ccccc4c3)C(=O)N12)C(=O)CN1CCN(CC(=O)N2CCCC2)CC1 [Example 117] |  | IC50: 7 µM |
| C=CCOC(=O)CC[C@H](NC(=O)[C@@H]1CCCN2C(=O)CCC[C@H](NC(=O)Nc3ccc(Oc4ccccc4)cc3)C(=O)N12)C(=O)COC(C)=O [Example 133] | 20 µM | Cathepsin K, percentage in parentheses beside IC50 value (% inhibition) (printed beside 20 μM, meaning not explained): 25% |
| C=CCOC(=O)CCC(NC(=O)C1CCCN2C(=O)CCC(NC(=O)NCCc3cccs3)C(=O)N12)C(=O)CSc1nnnn1-c1ccccc1 [Example 138, (2-propenyl)(4S)6-[(1-phenyl-1H-tetrazol-5-yl)thio]-4-[[[(1S,9S)-^9-[[[[^2-(thien-2-yl)-ethyl]amino]carbonyl]amino]-octahydro-6,10-dioxo-6H-pyridazino[1,2-a][1,2]diazepine-1-yl]carbonyl]amino]-5-oxo-hexanoate] | 29 µM |  |
| [N-]=[N+]=CC(=O)[C@H](Cc1ccccc1)NC(=O)[C@@H]1CCCN2C(=O)CC[C@H](NC(=O)NCCc3cccs3)C(=O)N12 [Example 162] | 20 µM |  |
| [N-]=[N+]=CC(=O)[C@H](Cc1ccccc1)NC(=O)[C@@H]1CCCN2C(=O)CC[C@H](NS(=O)(=O)c3ccc4ccccc4c3)C(=O)N12 [Example 165, 9-[(9S)-[(2-naphthalenyl)sulphonyl]amino]-N-( (2S)-4-diazo-1-phenyl-3-oxo-2-butyl)-octahydro-6,10-dioxo-6H-(1S)-pyridazino[1,2-a][1,2]diazepine-1-carboxamide] | 20 µM |  |
| C[C@H](NC(=O)[C@@H]1CCCN2C(=O)CC[C@H](NC(=O)Nc3ccc(Oc4ccccc4)cc3)C(=O)N12)C(=O)C=[N+]=[N-] [Example 171, 9-[(9S)-[[(4-phenoxyphenyl)amino]carbonyl]amino]-N-((2S)-4-diazo-3-oxo-2-butyl)-octahydro-6,10-dioxo-6H-(1S)-pyridazino[1,2-a][1,2]diazepine-1-carboxamide] | 8 µM |  |
| O=C(Nc1ccc(Oc2ccccc2)cc1)N[C@H]1CCC(=O)N2CCC[C@@H](C(=O)N[C@@H](Cc3ccccc3)C(=O)CN3CCC(Cc4ccccc4)CC3)N2C1=O [Example 218, 9-[(9S)-[[(4-phenoxyphenyl)amino]carbonyl]amino]-N-[(2S)-4-[(4-phenylmethyl)-1-piperidinyl]-1-phenyl-3-oxo-2-butyl]-octahydro-6,10-dioxo-6H-(1S)-pyridazino[1,2-a][1,2]diazepine-1-carboxamide] | 20 µM |  |
| CC(C)C[C@H](NC(=O)[C@@H]1CCCN2C(=O)CC[C@H](NC(=O)C(C)C)C(=O)N12)C(=O)C=[N+]=[N-] [Example 339, 9-[(9S)-(2-methyl-1-oxo-propyl)amino]-N-((3S)-1-diazo-5-methyl-2-oxo-3-hexyl)-octahydro-6,10-dioxo-6H-(1S)-pyridazino[1,2-a][1,2]diazepine-1-carboxamide] | 10 µM |  |
| COc1cccc(C(=O)N[C@H]2CCC(=O)N3CCC[C@@H](C(=O)N[C@@H](CC(C)C)C(=O)C=[N+]=[N-])N3C2=O)c1 [Example 340, 9-[(9S)-(3-methoxybenzoyl)amino]-N-((3S)-1-diazo-5-methyl-2-oxo-3-hexyl)-octahydro-6,10-dioxo-6H-(1S)-pyridazino[1,2-a][1,2]diazepine-1-carboxamide] | 7 µM |  |
| CC(C)C[C@H](NC(=O)[C@@H]1CCCN2C(=O)CC[C@H](NC(=O)c3ccco3)C(=O)N12)C(=O)C=[N+]=[N-] [Example 341, 9-[(9S)-[(2-furanyl)carbonyl]amino]-N-((3S)-1-diazo-5-methyl-2-oxo-3-hexyl)-octahydro-6,10-dioxo-6H-(1S)-pyridazino[1,2-a][1,2]diazepine-1-carboxamide] | 8 µM |  |
| CC(C)C[C@H](NC(=O)[C@@H]1CCCN2C(=O)CC[C@H](NC(=O)NC3CCCCC3)C(=O)N12)C(=O)C=[N+]=[N-] [Example 343, 9-[(9S)-[(cyclohexylamino)carbonyl]amino]-N-((3S)-1-diazo-5-methyl-2-oxo-3-hexyl)-octahydro-6,10-dioxo-6H-(1S)-pyridazino[1,2-a][1,2]diazepine-1-carboxamide] | 14 µM |  |
| CC(C)C[C@H](NC(=O)[C@@H]1CCCN2C(=O)CC[C@H](NC(=O)Nc3ccc(Oc4ccccc4)cc3)C(=O)N12)C(=O)C=[N+]=[N-] [Example 344, 9-[(9S)-[[(4-phenoxyphenyl)amino]carbonyl]amino]-N-((3S)-1-diazo-5-methyl-2-oxo-3-hexyl)-octahydro-6,10-dioxo-6H-(1S)-pyridazino[1,2-a][1,2]diazepine-1-carboxamide] | 5 µM |  |
| CC(C)C[C@H](NC(=O)[C@@H]1CCCN2C(=O)CC[C@H](NC(=O)NCCc3cccs3)C(=O)N12)C(=O)C=[N+]=[N-] [Example 345, 9-[(9S)-[[[2-(thien-2-yl)-ethyl]amino]carbonyl]amino]-N-((3S)-1-diazo-5-methyl-2-oxo-3-hexyl)-octahydro-6,10-dioxo-6H-(1S)-pyridazino[1,2-a][1,2]diazepine-1-carboxamide] | 5 µM |  |
| CC(C)C[C@H](NC(=O)[C@@H]1CCCN2C(=O)CC[C@H](NS(C)(=O)=O)C(=O)N12)C(=O)C=[N+]=[N-] [Example 346, 9-[(9S)-(methylsulphonyl)amino]-N-((3S)-1-diazo-5-methyl-2-oxo-3-hexyl)-octahydro-6,10-dioxo-6H-(1S)-pyridazino[1,2-a][1,2]diazepine-1-carboxamide] | 6 µM |  |
